Measured values published in patent publication US10300004B2, “Cosmetic composition for preventing or ameliorating skin damage caused by ultraviolet light” (CUSKIN CO., LTD, priority 2015, dated 2019).

Key:
human epidermis = details: Placzek M et al. 2005; cited from earlier work
HaCaT cells [1] = experiment: Cellular ROS generation assay (DCF-DA) in HaCaT cells; type: cell-based, Human; details: UVB, MVE 1000 nM, p<0.01, FIG. 5a
Description: (§1) Cellular ROS generation was measured using 2′,7′-dichlorodihydrofluorescein diacetate (DCF-DA, Molecular Probes, Eugene, Oreg., USA), as described previously (Hye Kim J et al., Stem cells 33: 542-556). Similarly, mitochondrial ROS (mtROS) generation was measured using Mito-Sox (Molecular Probes). Cells were seeded in 6-well plates in 0.2% FBS and cultured overnight. […] Each well was imaged every 10 minutes for 40 minutes under standard incubation conditions using an IncuCyte™ ZOOM microscope placed inside an incubator. Image-based analysis of fluorescence intensity was carried out using IncuCyte™ software (Essen Bioscience, MI, USA).

HaCaT cells [2] = experiment: Mitochondrial ROS generation assay (Mito-Sox) in HaCaT cells; type: cell-based, Human; details: UVB, MVE 1000 nM, p<0.01, FIG. 5b
Description: as §1

collagen type I = experiment: RT-PCR of collagen mRNA in dermal fibroblasts; type: cell-based, Human
Description: (§2) Total RNA of HDFs and HaCaT was extracted with Trizol reagent followed by reverse transcription to cDNA. The following oligonucleotides were used as primers: collagen type I [5′-[…]-3′ (SEQ ID NO: 1) and 5′-[…]-3′ (SEQ ID NO: 2)], MMP-1 [5′-[…]-3′ (SEQ ID NO: 3) and 5′-[…]-3′ (SEQ ID NO: 4)], and control GAPDH [5′-[…]-3′ (SEQ ID NO: 5) and 5′-[…]-3′ (SEQ ID NO: 6)]. PCR was carried out in a total volume of 30 μl for PCR amplification of cDNA that was reverse-transcribed from the total RNA. After initial denaturation at 95° C. for 5 minutes, amplification was performed in 35 cycles for 30 seconds at 95° C., 20 seconds at 54° C., and 30 seconds at 72° C. This was followed by a final extension at 72° C. for another 10 minutes. GAPDH mRNA level was used for sample standardization.

p53 = p53 protein levels in HaCaT cells after UVB; type: cell-based, Human; details: FIG. 4C
fibroblasts [3] = experiment: Mitochondrial ROS generation assay (Mito-Sox) in fibroblasts; type: cell-based, Human; details: UVB, MVE 1000 nM, p<0.01, FIG. 3b
Description: as §1

[4] = test system: matrix metalloproteinase 1 (MMP1); experiment: Western blot of MMP1 protein in fibroblasts; type: cell-based, Human; details: FIG. 2C
Description: (§3) Cells (2×10^5 cells/ml) were seeded in a 60 mm dish and cultured to 80% confluence. Cells were treated with MVE. Cells were then lysed with 1×RIPA buffer (50 mM Tris-HCl, 0.15 M NaCl, 1 mM EDTA, 1% Triton-X100, pH 7.4, 1% SDS, 50 mM NaF, 1 mM Na3VO4, 5 mM Dithiothreitol, 1 mg/ml Leupeptin, and 1 mM phenylmethylsulfonyl fluoride). Sample protein (40 μg) was separated in 10-12% SDS-polyacrylamide gels by electrophoresis. Proteins were transferred to PVDF membranes and incubated with antibodies to collagen (1:1000 rabbit source, Santa Cruz Biotechnology, Santa Cruz, Calif., USA) and matrix metalloproteinase 1 (MMP1, 1:1000 rabbit source, Santa Cruz Biotechnology). Membranes were then washed and incubated with horseradish peroxidase-conjugated anti-rabbit IgG antibody (Santa Cruz Biotechnology). Blots were reacted with western reagent (ECL; Millipore Billerica, Ann Arbor, Mass., USA) and exposed to X-ray film.

HaCaT cells [5] = experiment: MTT viability of HaCaT cells under UVB; type: cell-based, Human; details: p<0.01, FIG. 4B
Description: (§4) Human dermal fibroblasts (HDFs) and immortalized keratinocyte cell line (HaCaT) were cultured using DMEM (low, high glucose, Hyclone, Thermo Scientific, Logan, Utah, USA) supplemented with 10% FBS (Gibco, Invitrogen, Carlsbad, Calif., USA), 1% penicillin, and streptomycin (Gibco) at 37° C. with 5% CO2 in a humidified atmosphere (Kim W S et al., (2009) Journal of dermatological science 53: 96-102). Said cultures were performed by exchanging with fresh media every two days.
(§5) HDFs (3×10^4 cells/well) and HaCaT (4×10^4 cells/well) were seeded in 6-well plates. Cells were treated with various concentrations of MVE. Cells were then incubated for 48 hours and the MTT assay was performed. MTT solution (5 mg/ml in phosphate buffered saline) was added to each well at 1/20 of the media volume, incubated for 2 hours, and then supernatant was removed. Dimethyl sulfoxide (DMSO) was then added to dissolve formazan crystals, and the absorbance was measured at 595 nm using an ELISA reader (TECAN, Grodig, Austria).

[6] = test system: Human dermal fibroblasts (HDFs); experiment: MTT viability of dermal fibroblasts under UVB irradiation; type: cell-based
Description: as §4, §5

[7] = test system: Human dermal fibroblasts (HDFs); experiment: MTT proliferation assay in dermal fibroblasts; type: cell-based; details: 100~1000 nM; p<0.01; FIG. 1B
Description: as §4, §5

[8] = test system: matrix metalloproteinase 1 (MMP1); experiment: RT-PCR of MMP1 mRNA in dermal fibroblasts; type: cell-based, Human
Description: as §2

HaCaT cells [9] = experiment: MTT proliferation assay in HaCaT cells; type: cell-based, Human; details: dose-dependent; p<0.05; FIG. 4A
Description: as §4, §5

collagen = experiment: Western blot of collagen protein in fibroblasts; type: cell-based, Human; details: FIG. 2C
Description: as §3

fibroblasts [10] = experiment: Cellular ROS generation assay (DCF-DA) in fibroblasts; type: cell-based, Human; details: UVB, MVE 1000 nM, p<0.01, FIG. 3a
Description: as §1

HaCaT keratinocytes = details: Shibata A et al. 2010; cited from earlier work
[11] = dermal fibroblasts, no UVB, FIG. 2A

In the case of `Cc1c(C)c2c(c(C)c1O)CC[C@@](C)(CCC[C@H](C)CCC[C@H](C)CCCC(C)C)O2` [D-alpha-tocopherol], the “UVB-induced DNA damage” value (human epidermis) is listed as “prevented”.

With `Cc1c(C)c2c(c(C)c1O)CCC(C)(CC[P+](c1ccccc1)(c1ccccc1)c1ccccc1)O2.[Br-]` (centres unmarked) [MVE] the “cytosolic ROS level: fluorescent signal intensity of DCF-DA” value (HaCaT cells [1]) was “attenuated”, the “mitochondrial ROS production: signal intensity of mito-Sox” value (HaCaT cells [2]) was “reduced” and the “collagen mRNA expression” value (collagen type I; [11]) was “increased”. For the same compound, the “mRNA level of collagen reduced by UVB irradiation” value (collagen type I; fibroblasts with UVB, FIG. 2B) was “attenuated”, the “UVB-induced p53 protein levels” value (p53) was “reduced” and the “mitochondria ROS production: signal intensity of mito-Sox” value (fibroblasts [3]) was “reduced”. For the same compound, the “protein level of MMP1” value [4] was “altered”, the UVB-reduced cell viability (HaCaT cells [5]) was “increased” and the “protection of fibroblasts from UVB” value ([6]; 10~1000 nM, p<0.01, FIG. 1C) was “protected”. For the same compound, the “fibroblast survival (UVB irradiation), low concentrations” value ([6]; UVB 200 mJ, 0.1 and 1 μM, concentration-dependent, FIG. 1A) was “increased”, the “fibroblast survival (UVB irradiation), high concentrations” value ([6]; UVB 200 mJ, 10 to 100 μM, concentration-dependent, FIG. 1A) was “decreased” and the fibroblast proliferation [7] was “increased”. For the same compound, the “MMP1 mRNA expression” value [8, 11] was “down-regulated”, the “mRNA level of MMP1 increased by UVB” value ([8]; fibroblasts with UVB, FIG. 2B) was “reduced” and the “proliferation of HaCaT cells” value (HaCaT cells [9]) was “significantly increased”. The “protein level of collagen” value (collagen) was “altered” and the “cytosolic ROS level: fluorescent signal intensity of DCF-DA” value (fibroblasts [10]) was “attenuated”.

In the case of `CC(C)=CCC/C(C)=C/CC/C(C)=C/CC[C@]1(C)CCc2cc(O)c(C)c(C)c2O1` [γ-tocotrienol], the “protection from UVB induced inflammation” value (HaCaT keratinocytes) is listed as “protected”.

For vitamin E [reference compound], the “survival of dermal fibroblasts from UVB irradiation” value ([6]; UVB 200 mJ, 0.1 to 100 μM, FIG. 1A) was “slightly increased”.
